Patent EP4778522A1, “USE OF PYRROLOPYRIMIDINE COMPOUND AND COMPOSITION THEREOF” (Guangzhou Joyo Pharmatech Co., Ltd., priority 2023, dated 2025)
Where “and” joins values, the source holds several entries; their conditions need not be identical. Equal entries are not always repeated. Marks after values point to notes of the source that are not given here.

Legend:
[1] = tested on: FITC-induced mouse atopic dermatitis model; assay: FITC-induced mouse atopic dermatitis model: histopathological scoring of ears; assay type: in vivo, Balb/c mice; settings: pathological score (0-4), right ear, day 13, 20 mg/dose topical twice a day
Text: On day 13, all the experimental animals were euthanized by CO2 and cervical dislocation, and then the right ears were collected and fixed in 10% formalin for histopathological analysis.
After the ear tissues were embedded with paraffin, each ear tissue was sliced into 3-5 µm sections. After HE staining, the sections were subjected to routine histopathological evaluation and ear tissue thickness measurement. Table 4 Histopathological scoring criteria

[2] = tested on: FITC-induced mouse atopic dermatitis model; assay: FITC-induced mouse atopic dermatitis model: change in ear thickness; assay type: in vivo, Balb/c mice; settings: 20 mg/dose topical twice a day; for Ear thickness Day 5 / Ear thickness Day 6 / Ear thickness Day 12 / Ear thickness Day 13 / ΔEar thickness Day 6-Day 5 / ΔEar thickness Day 13-Day 5: right ear; for Inhibitory rate% (Day 13): Δ ear thickness vs model group
Text: • 1) Animals: female Balb/c mice, specific pathogen-free (SPF), aged 6-7 weeks at grouping, with 10 mice per group. The animals were provided by Shanghai Jihui Laboratory Animal Care Co., Ltd. • 2) Reagents, positive drugs and test drugs
FITC induction method: experimental animals were subjected to examination in an adaptation period and weight screening after examined to be qualified. The animals were randomly divided into 6 experimental groups according to the weight, including a normal group, a model group, a clobetasol propionate ointment group, a 0.5% Compound I group, a 1% Compound I group and a 2% Compound I group, with 10 mice in each group. On day 0 and day 1, after all the experimental animals were administered for 2 hours, the animals were anesthetized with zoletil (25 mg/kg) and xylazine (5 mg/kg), and then subjected to sensitization operation at the abdomen (a sensitized part). The abdominal part of the experimental animal at about 3×4 cm was depilated before sensitization, and then 0.5% FITC (dissolved in dibutyl phthalate/acetone solution) was applied to the alopecic areas of the abdomens of the experimental animals in model group for sensitization. An equal volume of dibutyl phthalate/acetone was given to the alopecic areas of the abdomens of the experimental animals in the normal-blank gel group.
On day 5 and day 12, all the experimental animals were anesthetized with 1-4% isoflurane (all subsequent measurements on ear thickness were performed under anesthesia with isoflurane), and the thickness of the right-side ear margins of the experimental animals was measured as a baseline. On day 5 and day 12, 0.5% FITC was applied to both the inner and outer sides of the right ears of the experimental animals in model group for challenge treatment. An equal volume of dibutyl phthalate/acetone solution was given to the experimental animals in the normal-blank gel group.
On day 6 and day 13, 24 hours after each FITC challenge, the thickness of the right-side ear margins of all the experimental animals was measured. Ear swelling response was determined by the change in the ear thickness before and after FITC challenge measured with a digital display thickness gauge, the measurement positions were basically kept constant, and the mean change in the ear thickness (ΔT±S.E.M.) was recorded for each group.

[3] = tested on: imiquimod-induced C3H/HeJ mice alopecia areata model; assay: Imiquimod-induced mouse alopecia areata model: hair growth; assay type: in vivo; settings: for Hair growth rate (%): listed as test drug
Description: • 1) Animals: female C3H/He mice, SPF, aged 6-8 weeks at grouping. The animals were provided by Beijing Viewsolid Biotech. • 2) Reagents, positive drugs and test drugs
After one week of adaptive feeding of C3H/HeJ mice: modeling was performed by applying imiquimod ointment to the neck, 3 times a week. The mice were carefully taken out, and about 0.05 g of 5% imiquimod ointment was dipped with a clean medical cotton swab and then applied evenly to the skin on the neck over a range of about 1.5 cm×1.5 cm. Before each application, the local part was cleaned by normal saline to remove the residual drug in the previous time. The continuous administration time was no longer than 10 weeks. When alopecia areata with an area size > 1 cm×1 cm was formed at the administration part, the administration was stopped, proving that a preparation model was successful. The mice in the normal control group were modeled by using blank ointment (vaseline ointment).
During the period from the first administration to the end of the last administration after the alopecia areata modeling was successful, the alopecia areata part of each mouse was photographed once every 3 days, the photographing distance, angle and magnification times were fixed, and the hair growth of the alopecic areas on the backs of the mice was recorded.
Visual quantification of the alopecia area images was performed using ImageJ software. The hair growth area (a) and hair loss area (b) were calculated. The hair growth rate was counted and analyzed: hair growth rate (%) = (a/b)* 100%. The newly grown hairs at the alopecia areata part of the mice in each group were scored based on the hair growth rate. Table 14 Scoring criteria of newly grown hairs

[4] = tested on: monobenzone-induced mouse vitiligo model; assay: Monobenzone-induced mouse vitiligo model: skin pathological analysis of melanin-containing hair follicles; assay type: in vivo, C57BL/6 mice; settings: for Number of melanin-containing hair follicles / Proportion of melanin-containing hair follicles (%): 30 mg topical twice a day for 50 days
Description: The mice were euthanized within 2-4 hours after the last administration, and approximately 1 cm^2 of the skin in the center of the depilated part of the mice was taken and fixed with 4% paraformaldehyde. The animal skin tissues were fixed with 4% paraformaldehyde, dehydrated, embedded with paraffin, sectioned and then subjected to HE staining. The stained sections were photographed by white light panoramic scanning, histopathological changes of the skin tissues and inflammatory cell infiltration were observed, and the number of melanin-containing hair follicles and/or the proportion of the melanin-containing hair follicles in the skin were quantitatively analyzed. The panoramic scanning files were opened by using CaseViewer software, a picture view with the length of about 3.8 mm was randomly selected, and the pictures were saved. The number of all the hair follicles and the number of the melanin-containing hair follicles in the picture were counted respectively by using ipwin32 software. The proportion of the melanin-containing hair follicles was calculated according to the following formula: Proportion of melanin-containing hair follicles = number of melanin-containing follicles/number of all follicles

SMILES: CN(c1ncnc2[nH]ccc12)[C@@H]1CCc2cc(C#N)nn2C1 [compound I]
- Enlargement of follicular orifice ([1]; 1% gel): 1.50 ± 0.17 and 1.50
- Enlargement of follicular orifice ([1]; 2% gel): 1.30 ± 0.26 and 1.30
- Ear thickness Day 5 ([2]; 0.5% gel): 0.17 mm
- Ear thickness Day 6 ([2]; 0.5% gel): 0.19 mm
- Ear thickness Day 12 ([2]; 0.5% gel): 0.18 mm
- Ear thickness Day 13 ([2]; 0.5% gel): 0.19 mm
- ΔEar thickness Day 6-Day 5 ([2]; 0.5% gel): 0.0250 mm
- ΔEar thickness Day 13-Day 5 ([2]; 0.5% gel): 0.0170 ± 0.0033 mm
- ΔEar thickness Day 13-Day 5 ([2]; 0.5% gel, listed as compound 1): 0.0170 mm
- Inhibitory rate% (Day 13) ([2]; 0.5% gel): 82.65%
- Inhibitory rate% (Day 13) ([2]; 0.5% gel, listed as compound 1): 82.65%****
- Ear thickness Day 5 ([2]; 1% gel): 0.17 mm
- Ear thickness Day 6 ([2]; 1% gel): 0.20 mm
- Ear thickness Day 12 ([2]; 1% gel): 0.18 mm
- Ear thickness Day 13 ([2]; 1% gel): 0.19 mm
- ΔEar thickness Day 6-Day 5 ([2]; 1% gel): 0.0280 mm
- ΔEar thickness Day 13-Day 5 ([2]; 1% gel): 0.0250 ± 0.0043 mm and 0.0250 mm
- Ear thickness Day 5 ([2]; 2% gel): 0.17 mm
- Ear thickness Day 6 ([2]; 2% gel): 0.20 mm
- Ear thickness Day 12 ([2]; 2% gel): 0.18 mm
- Ear thickness Day 13 ([2]; 2% gel): 0.20 mm
- ΔEar thickness Day 6-Day 5 ([2]; 2% gel): 0.0260 mm
- ΔEar thickness Day 13-Day 5 ([2]; 2% gel): 0.0250 ± 0.0017 mm and 0.0250 mm
- Hair growth rate (%) ([3]; 3 mg/kg oral by gavage twice a day for one month, Day 30): 71.62 ± 5.56%
- amelioration effect (comparison) ([3]; 3 mg/kg oral, hair growth at alopecic area, Day 30): equivalent to that of the positive control drug at the dose of 10 mg/kg
- Hair growth rate (%) ([3]; 10 mg/kg oral by gavage twice a day for one month, Day 30): 83.93 ± 5.58%
- therapeutic effect (comparison) ([3]; mouse alopecia areata model, oral): superior to that of the positive drug baricitinib
- therapeutic effect (comparison) ([4]; 1% and 2% compound I gel, reduction of melanin-containing hair follicles in vitiligo model): equivalent to that of 1.5% ruxolitinib and superior to that of 0.03% tacrolimus
- Number of melanin-containing hair follicles ([4]; 1% compound I gel): 30.3
- Proportion of melanin-containing hair follicles (%) ([4]; 1% compound I gel): 29.7 ± 9.1% and 29.7%
- Number of melanin-containing hair follicles ([4]; 1% compound I gel, listed as Compound I): 30.3 ± 14.8
- number of the melanin-containing hair follicles, increase compared to the blank preparation group ([4]; 2% compound I gel): 37.9%
- number of the melanin-containing hair follicles, times that of the model control group ([4]; 2% compound I gel): about 4 times
- proportion of the melanin-containing hair follicles relative to the model control group ([4]; 2% compound I gel): about twice
- Number of melanin-containing hair follicles ([4]; 2% compound I gel): 26.9*
- Proportion of melanin-containing hair follicles (%) ([4]; 2% compound I gel): 30.6 ± 6.2% and 30.6%
- Number of melanin-containing hair follicles ([4]; 2% compound I gel, listed as Compound I): 26.9 ± 7.4
- therapeutic effect (comparison) ([4]; 2% compound I gel, proportion of melanin-containing hair follicles): equivalent to that of the ruxolitinib ointment
